# Measured values from PubChem BioAssay (NCI).
#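 Each compound was tested at five concentrations against cells in 96-well plates for 48 hours. TGI denotes the concentration required for complete inhibition of growth.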
# Tests used:
# Experiment in all cases: NCI-60 cell line screen, 48 h
# 786-0 renal = system: 786-0 renal
# A498 renal = system: A498 renal
# A549 NSCLC = system: A549 NSCLC
# ACHN renal = system: ACHN renal
# BT-549 breast = system: BT-549 breast
# CAKI-1 renal = system: CAKI-1 renal
# CCRF-CEM leukemia = system: CCRF-CEM leukemia
# COLO 205 colon = system: COLO 205 colon
# DU-145 prostate = system: DU-145 prostate
# EKVX NSCLC = system: EKVX NSCLC
# HCC-2998 colon = system: HCC-2998 colon
# HCT-116 colon = system: HCT-116 colon
# HCT-15 colon = system: HCT-15 colon
# HL-60(TB) leukemia = system: HL-60(TB) leukemia
# HOP-62 NSCLC = system: HOP-62 NSCLC
# HT29 colon = system: HT29 colon
# IGROV1 ovarian = system: IGROV1 ovarian
# K-562 leukemia = system: K-562 leukemia
# KM12 colon = system: KM12 colon
# LOX IMVI melanoma = system: LOX IMVI melanoma
# M14 melanoma = system: M14 melanoma
# MALME-3M melanoma = system: MALME-3M melanoma
# MCF7 breast = system: MCF7 breast
# MDA-MB-231 breast = system: MDA-MB-231 breast
# MDA-MB-435 = system: MDA-MB-435
# MDA-N = system: MDA-N
# MOLT-4 leukemia = system: MOLT-4 leukemia
# NCI-H226 lung = system: NCI-H226 lung
# NCI-H23 lung = system: NCI-H23 lung
# NCI-H460 lung = system: NCI-H460 lung
# NCI-H522 lung = system: NCI-H522 lung
# NCI/ADR-RES ovarian = system: NCI/ADR-RES ovarian
# OVCAR-3 ovarian = system: OVCAR-3 ovarian
# OVCAR-4 ovarian = system: OVCAR-4 ovarian
# OVCAR-5 ovarian = system: OVCAR-5 ovarian
# OVCAR-8 ovarian = system: OVCAR-8 ovarian
# PC-3 prostate = system: PC-3 prostate
# RPMI-8226 leukemia = system: RPMI-8226 leukemia
# RXF 393 renal = system: RXF 393 renal
# SF-268 CNS = system: SF-268 CNS
# SF-295 CNS = system: SF-295 CNS
# SF-539 CNS = system: SF-539 CNS
# SK-MEL-2 melanoma = system: SK-MEL-2 melanoma
# SK-MEL-28 melanoma = system: SK-MEL-28 melanoma
# SK-MEL-5 melanoma = system: SK-MEL-5 melanoma
# SK-OV-3 ovarian = system: SK-OV-3 ovarian
# SN12C renal = system: SN12C renal
# SNB-19 CNS = system: SNB-19 CNS
# SR leukemia = system: SR leukemia
# SW-620 colon = system: SW-620 colon
# T-47D breast = system: T-47D breast
# TK-10 renal = system: TK-10 renal
# U251 CNS = system: U251 CNS
# UACC-257 melanoma = system: UACC-257 melanoma
# UACC-62 melanoma = system: UACC-62 melanoma
# HOP-92 NSCLC = system: HOP-92 NSCLC
# SNB-75 CNS = system: SNB-75 CNS
# UO-31 renal = system: UO-31 renal
# HS 578T breast = system: HS 578T breast
smiles,measurement,setting,value
O=C1c2ccccc2C(=O)N1NC1=NCCN1,TGI,786-0 renal,> 100 µM
same,TGI,A498 renal,> 100 µM
same,TGI,A549 NSCLC,> 100 µM
same,TGI,ACHN renal,> 100 µM
same,TGI,BT-549 breast,> 100 µM
same,TGI,CAKI-1 renal,> 100 µM
same,TGI,CCRF-CEM leukemia,> 100 µM
same,TGI,COLO 205 colon,> 100 µM
same,TGI,DU-145 prostate,> 100 µM
same,TGI,EKVX NSCLC,> 100 µM
same,TGI,HCC-2998 colon,> 100 µM
same,TGI,HCT-116 colon,> 100 µM
same,TGI,HCT-15 colon,> 100 µM
same,TGI,HL-60(TB) leukemia,> 100 µM
same,TGI,HOP-62 NSCLC,> 100 µM
same,TGI,HT29 colon,> 100 µM
same,TGI,IGROV1 ovarian,> 100 µM
same,TGI,K-562 leukemia,> 100 µM
same,TGI,KM12 colon,> 100 µM
same,TGI,LOX IMVI melanoma,> 100 µM
same,TGI,M14 melanoma,> 100 µM
same,TGI,MALME-3M melanoma,> 100 µM
same,TGI,MCF7 breast,> 100 µM
same,TGI,MDA-MB-231 breast,> 100 µM
same,TGI,MDA-MB-435,> 100 µM
same,TGI,MDA-N,> 100 µM
same,TGI,MOLT-4 leukemia,> 100 µM
same,TGI,NCI-H226 lung,> 100 µM
same,TGI,NCI-H23 lung,> 100 µM
same,TGI,NCI-H460 lung,> 100 µM
same,TGI,NCI-H522 lung,> 100 µM
same,TGI,NCI/ADR-RES ovarian,> 100 µM
same,TGI,OVCAR-3 ovarian,> 100 µM
same,TGI,OVCAR-4 ovarian,> 100 µM
same,TGI,OVCAR-5 ovarian,> 100 µM
same,TGI,OVCAR-8 ovarian,> 100 µM
same,TGI,PC-3 prostate,> 100 µM
same,TGI,RPMI-8226 leukemia,> 100 µM
same,TGI,RXF 393 renal,> 100 µM
same,TGI,SF-268 CNS,> 100 µM
same,TGI,SF-295 CNS,> 100 µM
same,TGI,SF-539 CNS,> 100 µM
same,TGI,SK-MEL-2 melanoma,> 100 µM
same,TGI,SK-MEL-28 melanoma,> 100 µM
same,TGI,SK-MEL-5 melanoma,> 100 µM
same,TGI,SK-OV-3 ovarian,> 100 µM
same,TGI,SN12C renal,> 100 µM
same,TGI,SNB-19 CNS,> 100 µM
same,TGI,SR leukemia,> 100 µM
same,TGI,SW-620 colon,> 100 µM
same,TGI,T-47D breast,> 100 µM
same,TGI,TK-10 renal,> 100 µM
same,TGI,U251 CNS,> 100 µM
same,TGI,UACC-257 melanoma,> 100 µM
same,TGI,UACC-62 melanoma,> 100 µM
Cc1cccc(-c2nc(-c3cnccn3)n(Cc3ccccc3)n2)c1,TGI,786-0 renal,> 100 µM
same,TGI,A549 NSCLC,> 100 µM
same,TGI,BT-549 breast,> 100 µM
same,TGI,CCRF-CEM leukemia,> 100 µM
same,TGI,COLO 205 colon,> 100 µM
same,TGI,DU-145 prostate,> 100 µM
same,TGI,HCC-2998 colon,> 100 µM
same,TGI,HCT-116 colon,> 100 µM
same,TGI,HCT-15 colon,> 100 µM
same,TGI,HL-60(TB) leukemia,> 100 µM
same,TGI,HOP-62 NSCLC,> 100 µM
same,TGI,HOP-92 NSCLC,79.6 µM
same,TGI,HT29 colon,> 100 µM
same,TGI,IGROV1 ovarian,> 100 µM
same,TGI,K-562 leukemia,> 100 µM
same,TGI,KM12 colon,> 100 µM
same,TGI,LOX IMVI melanoma,> 100 µM
same,TGI,M14 melanoma,> 100 µM
same,TGI,MCF7 breast,> 100 µM
same,TGI,MDA-MB-231 breast,> 100 µM
same,TGI,MDA-MB-435,> 100 µM
same,TGI,MDA-N,> 100 µM
same,TGI,MOLT-4 leukemia,> 100 µM
same,TGI,NCI-H23 lung,> 100 µM
same,TGI,NCI-H460 lung,> 100 µM
same,TGI,NCI-H522 lung,> 100 µM
same,TGI,NCI/ADR-RES ovarian,> 100 µM
same,TGI,OVCAR-3 ovarian,> 100 µM
same,TGI,OVCAR-4 ovarian,> 100 µM
same,TGI,OVCAR-5 ovarian,> 100 µM
same,TGI,OVCAR-8 ovarian,> 100 µM
same,TGI,PC-3 prostate,> 100 µM
same,TGI,RPMI-8226 leukemia,> 100 µM
same,TGI,RXF 393 renal,94.1 µM
same,TGI,SF-268 CNS,> 100 µM
same,TGI,SF-295 CNS,> 100 µM
same,TGI,SF-539 CNS,> 100 µM
same,TGI,SK-MEL-28 melanoma,> 100 µM
same,TGI,SK-MEL-5 melanoma,> 100 µM
same,TGI,SK-OV-3 ovarian,> 100 µM
same,TGI,SN12C renal,> 100 µM
same,TGI,SNB-19 CNS,> 100 µM
same,TGI,SNB-75 CNS,30.2 µM
same,TGI,SR leukemia,> 100 µM
same,TGI,SW-620 colon,> 100 µM
same,TGI,T-47D breast,> 100 µM
same,TGI,U251 CNS,> 100 µM
same,TGI,UACC-257 melanoma,> 100 µM
same,TGI,UACC-62 melanoma,> 100 µM
same,TGI,UO-31 renal,> 100 µM
NC(=O)c1csc(-c2ccc(CO)o2)n1,TGI,786-0 renal,> 100 µM
same,TGI,A498 renal,> 100 µM
same,TGI,A549 NSCLC,> 100 µM
same,TGI,ACHN renal,> 100 µM
same,TGI,BT-549 breast,> 100 µM
same,TGI,CAKI-1 renal,> 100 µM
same,TGI,COLO 205 colon,> 100 µM
same,TGI,DU-145 prostate,> 100 µM
same,TGI,EKVX NSCLC,> 100 µM
same,TGI,HCT-116 colon,> 100 µM
same,TGI,HCT-15 colon,> 100 µM
same,TGI,HL-60(TB) leukemia,> 100 µM
same,TGI,HOP-92 NSCLC,> 100 µM
same,TGI,HT29 colon,> 100 µM
same,TGI,IGROV1 ovarian,> 100 µM
same,TGI,K-562 leukemia,> 100 µM
same,TGI,KM12 colon,> 100 µM
same,TGI,LOX IMVI melanoma,> 100 µM
same,TGI,M14 melanoma,> 100 µM
same,TGI,MALME-3M melanoma,> 100 µM
same,TGI,MCF7 breast,> 100 µM
same,TGI,MDA-MB-231 breast,> 100 µM
same,TGI,MDA-MB-435,> 100 µM
same,TGI,MDA-N,> 100 µM
same,TGI,MOLT-4 leukemia,> 100 µM
same,TGI,NCI-H226 lung,> 100 µM
same,TGI,NCI-H23 lung,> 100 µM
same,TGI,NCI-H460 lung,> 100 µM
same,TGI,NCI-H522 lung,> 100 µM
same,TGI,NCI/ADR-RES ovarian,> 100 µM
same,TGI,OVCAR-3 ovarian,> 100 µM
same,TGI,OVCAR-4 ovarian,> 100 µM
same,TGI,OVCAR-5 ovarian,> 100 µM
same,TGI,OVCAR-8 ovarian,> 100 µM
same,TGI,PC-3 prostate,> 100 µM
same,TGI,RPMI-8226 leukemia,> 100 µM
same,TGI,RXF 393 renal,> 100 µM
same,TGI,SF-268 CNS,> 100 µM
same,TGI,SF-295 CNS,> 100 µM
same,TGI,SF-539 CNS,> 100 µM
same,TGI,SK-MEL-2 melanoma,> 100 µM
same,TGI,SK-MEL-28 melanoma,> 100 µM
same,TGI,SK-MEL-5 melanoma,> 100 µM
same,TGI,SK-OV-3 ovarian,> 100 µM
same,TGI,SN12C renal,> 100 µM
same,TGI,SNB-19 CNS,> 100 µM
same,TGI,SR leukemia,> 100 µM
same,TGI,SW-620 colon,> 100 µM
same,TGI,T-47D breast,> 100 µM
same,TGI,TK-10 renal,> 100 µM
same,TGI,U251 CNS,> 100 µM
same,TGI,UACC-257 melanoma,> 100 µM
same,TGI,UACC-62 melanoma,> 100 µM
same,TGI,UO-31 renal,> 100 µM
CCCCCCc1cc2cc(C(=O)Nc3cccc(F)c3)c(=N)oc2cc1O,TGI,786-0 renal,11.5 µM
same,TGI,A498 renal,15 µM
same,TGI,A549 NSCLC,13.4 µM
same,TGI,ACHN renal,> 100 µM
same,TGI,BT-549 breast,6.19 µM
same,TGI,CAKI-1 renal,10.2 µM
same,TGI,CCRF-CEM leukemia,4.97 µM
same,TGI,COLO 205 colon,34.7 µM
same,TGI,DU-145 prostate,12.2 µM
same,TGI,EKVX NSCLC,6.44 µM
same,TGI,HCC-2998 colon,11.6 µM
same,TGI,HCT-116 colon,11.1 µM
same,TGI,HCT-15 colon,5.87 µM
same,TGI,HL-60(TB) leukemia,5.33 µM
same,TGI,HOP-62 NSCLC,17.7 µM
same,TGI,HS 578T breast,6.81 µM
same,TGI,HT29 colon,78.6 µM
same,TGI,IGROV1 ovarian,4 µM
same,TGI,K-562 leukemia,10.5 µM
same,TGI,KM12 colon,8.3 µM
same,TGI,LOX IMVI melanoma,3.41 µM
same,TGI,M14 melanoma,11.3 µM
same,TGI,MALME-3M melanoma,8.75 µM
same,TGI,MCF7 breast,11.7 µM
same,TGI,MDA-MB-435,6.51 µM
same,TGI,MDA-N,11.8 µM
same,TGI,MOLT-4 leukemia,7.69 µM
same,TGI,NCI-H23 lung,5.06 µM
same,TGI,NCI-H460 lung,> 100 µM
same,TGI,NCI-H522 lung,5.33 µM
same,TGI,NCI/ADR-RES ovarian,7.54 µM
same,TGI,OVCAR-3 ovarian,23.7 µM
same,TGI,OVCAR-4 ovarian,12.3 µM
same,TGI,OVCAR-5 ovarian,48.6 µM
same,TGI,OVCAR-8 ovarian,3.56 µM
same,TGI,PC-3 prostate,14 µM
same,TGI,RPMI-8226 leukemia,9.4 µM
same,TGI,SF-268 CNS,10.6 µM
same,TGI,SF-295 CNS,15.9 µM
same,TGI,SF-539 CNS,19.2 µM
same,TGI,SK-MEL-2 melanoma,5.44 µM
same,TGI,SK-MEL-28 melanoma,9.51 µM
same,TGI,SK-MEL-5 melanoma,2.85 µM
same,TGI,SK-OV-3 ovarian,13.3 µM
same,TGI,SNB-19 CNS,23.9 µM
same,TGI,SR leukemia,6.29 µM
same,TGI,SW-620 colon,> 100 µM
same,TGI,T-47D breast,7.35 µM
same,TGI,U251 CNS,6.58 µM
same,TGI,UACC-257 melanoma,11.9 µM
same,TGI,UACC-62 melanoma,7.04 µM
same,TGI,UO-31 renal,12.4 µM
